Our source for the EC50 and IC50 values is patent US20240067657A1, “AMIDO-SUBSTITUTED PYRIDYL COMPOUNDS AND METHODS OF USE THEREOF FOR THE TREATMENT OF HERPESVIRUSES” (Merck Sharp & Dohme LLC, priority 2020, published 2024).

Experiment [1] concerns HSV-1 Strain F in Vero or MRC5 cells. In words: Viral qPCR assay HSV-1 (V0/V1, V2/V3), EC50. Format: cell-based. The conditions noted are these: Human alphaherpesvirus 1, Vero, VERO cells, 10%; read-out: HSV1 Cell (EC50) VERO 10%. How it is done: (§1) Viral qPCR Assays (V0/V1)
(§2) MRC5 cells, Vero cells, and MeWo cells were obtained from ATCC and were maintained at 37° C./5% CO2/90% relative humidity in Minimal Essential Medium with 10% fetal bovine serum, […] L-glutamine, 100 units/ml penicillin and 100 ug/ml streptomycin. Assay plates were prepared by dispensing compounds dissolved in DMSO into wells of 384 well collagen-coated plates using an ECHO acoustic dispenser. Each compound was tested in a 10-point, serial 3-fold dilution. Controls included uninfected cells and infected cells treated only with DMSO. Assays were initiated by mixing selected cells, in suspension, with virus, and dispensing 50 μl/well infected cells to pre-plated compounds. Plates were incubated at 37° C./5% CO2/90% relative humidity for ˜72 hrs to permit genomic replication, and infected cells were lysed by the addition of an equal volume of lysis buffer (10 mM Tris-HCl, pH8, 50 mM KCl, 2 mM MgCl2, 0.45% NP-40, 0.45% Tween-20, and 100 μg/ml proteinase K). An aliquot of the lysate was transferred to a 384-well PCR plate and incubated at 56° C. for 1 hour and then at 95° C. for 10 min. Levels of a viral gene and of the cellular control, PPIA (Thermo Fisher Assay ID=Hs04194521_s1), were measured in separate 10 μL qPCR assays using TaqMan® Gene Expression Master Mix (Applied Biosystems), and an 7900HT Fast Real-Time PCR System with 384-Well Block Module. 7-point, serial 10-fold dilutions of a plasmid standard were run on each plate to generate a standard curve, and genome copies numbers were calculated by plotting experimental Ct onto linear regression of the standard curve. Viral genome copy numbers were normalized by cellular control copy number, and compound effects were normalized to the window defined by the controls. Calculated % effects were fit using a 4-parameter algorithm, and EC50 was reported.
(§3) Viral qPCR Assays (V2/V3)
as §2, with “gene” for “gene and of the cellular control, PPIA (Thermo Fisher Assay ID=Hs04194521_s1),”, “in” for “in separate”, “Compound effects on viral” for “Viral”, “number” for “numbers were normalized by cellular control copy number, and compound effects”, “reported. • HCMV: Strain AD169 Street was assayed in MRC-5 cells and was used at 0.05-0.1 pfu/cell. The assays were performed in either growth media or in the same media with 50% fetal bovine serum. Primer-probe set was Thermo Fisher Assay ID=AIFATFK. • VZV: Strain Street was maintained as an infected cell stock in MRC-5 cells. It was assayed in MeWo or MRC5 cells and was used at 0.04-0.1 pfu/cell. […]” for “reported.”

Experiment [2] concerns the target T1, Human cytomegalovirus DNA polymerase (Human cytomegalovirus, UniProt P08546).
T1 construct: made in house; host or cells: SF21 insect cells (baculovirus vector)
Put plainly: HCMV polymerase assay (AlphaLISA, IC50). Format: biochemical. The conditions noted are these: polymerase assay of Example 190. The protocol: (§4) Human cytomegalovirus and varicella zoster virus DNA polymerases were expressed via baculovirus vector in SF21 cells and purified. Heterodimeric nucleic acid substrate used in the herpesvirus polymerase reactions was generated by annealing a 59-mer template to a 17-mer digoxigenin-labeled primer. Polymerase (HCMV final concentration of 0.2 nM; VZV final concentration of 0.4 nM) was combined with an inhibitor compound or DMSO in assay buffer (10 mM HEPES, pH 7.5, 25 mM KCl, 25 mM NaCl, 5 mM MgCl2, 5% glycerol, 0.67 mg/ml bovine serum albuminutes, and 1 mM tris(2-carboxyethyl)phosphine), and this mixture was pre-incubated for 30 minutes at room temperature in 384-well microtiter plates. The polymerization reaction was initiated by the addition of template/primer substrate (final concentration: 1.6 nM), and dNTPs (final concentration: 24 nM dCTP, 24 nMdGTP, 16 nM dATP, 16 nM dTTP, and 0.8 nM biotin-dUTP). After 60 minutes incubation at 37° C., reactions were terminated with quench buffer (25 mM HEPES pH 7.5, 100 mM NaCl, 0.25% Tween-20, 12 mM EDTA, and 1 mg/ml bovine serum albumin). Incorporation of biotinylated UTP was detected with 2.5-5 ug/ml anti-DIG AlphaLISA acceptor beads and 5-10 ug/ml streptavidin AlphaLISA donor beads (Perkin Elmer). Compound effects were normalized to the window defined by the controls (DMSO only and pre-quenched wells), and were fit using a 4-parameter algorithm to report an IC50.

Experiment [3] has as its target T2, varicella zoster virus DNA polymerase (Varicella-zoster virus, UniProt P09252).
T2 construct: made in house; host or cells: SF21 insect cells (baculovirus vector)
In words: VZV polymerase assay (AlphaLISA, IC50). Format: biochemical. The conditions noted are these: polymerase assay of Example 190. The protocol:
as §4

The test system of experiment [4] is VZV in MeWo or MRC5 cells. Put plainly: Viral qPCR assay VZV (V0/V1, V2/V3), EC50. In kind it is cell-based. The conditions noted are these: Human alphaherpesvirus 3, MRC5, MRC5 cells, 10%; read-out: VZV Cell (EC50) MRC5 10%. The protocol:
as §1, §2, §3
as §2, with “gene” for “gene and of the cellular control, PPIA (Thermo Fisher Assay ID=Hs04194521_s1),”, “in” for “in separate”, “Compound effects on viral” for “Viral”, “number” for “numbers were normalized by cellular control copy number, and compound effects”, “reported. • HCMV: Strain AD169 Street was assayed in MRC-5 cells and was used at 0.05-0.1 pfu/cell. The assays were performed in either growth media or in the same media with 50% fetal bovine serum. Primer-probe set was Thermo Fisher Assay ID=AIFATFK. • VZV: Strain Street was maintained as an infected cell stock in MRC-5 cells. It was assayed in MeWo or MRC5 cells and was used at 0.04-0.1 pfu/cell. […]” for “reported.”
In general terms: Real-time PCR tracks product formation cycle by cycle.

Experiment [5] has as its system HCMV Strain AD169 in MRC-5 cells. In words: Viral qPCR assay HCMV (V0/V1, V2/V3), EC50. Format: cell-based. The conditions noted are these: Human betaherpesvirus 5, AD169, MRC5, viral qPCR assay of Example 191; read-out: HCMV Cell (EC50). How it is done: as §1, §2, §3
as §2, with “gene” for “gene and of the cellular control, PPIA (Thermo Fisher Assay ID=Hs04194521_s1),”, “in” for “in separate”, “Compound effects on viral” for “Viral”, “number” for “numbers were normalized by cellular control copy number, and compound effects”, “reported. • HCMV: Strain AD169 Street was assayed in MRC-5 cells and was used at 0.05-0.1 pfu/cell. The assays were performed in either growth media or in the same media with 50% fetal bovine serum. Primer-probe set was Thermo Fisher Assay ID=AIFATFK. • VZV: Strain Street was maintained as an infected cell stock in MRC-5 cells. It was assayed in MeWo or MRC5 cells and was used at 0.04-0.1 pfu/cell. […]” for “reported.”

T2 sequence (P09252 whole entry): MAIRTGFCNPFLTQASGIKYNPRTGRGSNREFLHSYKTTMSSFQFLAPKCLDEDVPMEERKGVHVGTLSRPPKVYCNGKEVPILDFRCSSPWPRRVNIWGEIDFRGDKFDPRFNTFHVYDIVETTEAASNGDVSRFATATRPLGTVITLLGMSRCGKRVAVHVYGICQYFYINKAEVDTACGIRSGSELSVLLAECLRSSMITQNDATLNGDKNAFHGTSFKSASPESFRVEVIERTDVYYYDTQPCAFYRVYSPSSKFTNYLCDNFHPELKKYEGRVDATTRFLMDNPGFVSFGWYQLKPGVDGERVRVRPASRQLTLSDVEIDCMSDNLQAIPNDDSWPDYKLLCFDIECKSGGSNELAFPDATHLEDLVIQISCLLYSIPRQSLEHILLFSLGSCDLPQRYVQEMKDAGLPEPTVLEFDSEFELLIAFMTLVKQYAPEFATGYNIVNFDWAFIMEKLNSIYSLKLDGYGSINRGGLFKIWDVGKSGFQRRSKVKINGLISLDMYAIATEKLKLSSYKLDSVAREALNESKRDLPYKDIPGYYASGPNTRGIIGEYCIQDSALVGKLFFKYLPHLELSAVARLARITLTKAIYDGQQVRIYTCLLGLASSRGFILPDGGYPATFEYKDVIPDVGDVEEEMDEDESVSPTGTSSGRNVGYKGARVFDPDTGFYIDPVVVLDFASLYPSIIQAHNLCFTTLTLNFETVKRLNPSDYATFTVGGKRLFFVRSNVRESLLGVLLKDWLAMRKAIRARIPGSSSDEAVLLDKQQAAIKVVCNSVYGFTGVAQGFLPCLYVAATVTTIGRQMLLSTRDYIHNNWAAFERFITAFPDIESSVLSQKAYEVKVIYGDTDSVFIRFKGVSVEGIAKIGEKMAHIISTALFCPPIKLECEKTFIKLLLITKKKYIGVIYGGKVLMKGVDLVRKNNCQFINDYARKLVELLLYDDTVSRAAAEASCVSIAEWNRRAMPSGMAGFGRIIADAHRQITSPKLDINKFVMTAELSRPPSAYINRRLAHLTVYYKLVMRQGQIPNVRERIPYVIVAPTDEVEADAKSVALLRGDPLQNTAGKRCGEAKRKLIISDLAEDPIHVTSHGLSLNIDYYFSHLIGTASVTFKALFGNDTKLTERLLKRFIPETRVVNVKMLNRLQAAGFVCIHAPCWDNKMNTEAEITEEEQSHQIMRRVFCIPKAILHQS
T1 sequence (P08546 whole entry): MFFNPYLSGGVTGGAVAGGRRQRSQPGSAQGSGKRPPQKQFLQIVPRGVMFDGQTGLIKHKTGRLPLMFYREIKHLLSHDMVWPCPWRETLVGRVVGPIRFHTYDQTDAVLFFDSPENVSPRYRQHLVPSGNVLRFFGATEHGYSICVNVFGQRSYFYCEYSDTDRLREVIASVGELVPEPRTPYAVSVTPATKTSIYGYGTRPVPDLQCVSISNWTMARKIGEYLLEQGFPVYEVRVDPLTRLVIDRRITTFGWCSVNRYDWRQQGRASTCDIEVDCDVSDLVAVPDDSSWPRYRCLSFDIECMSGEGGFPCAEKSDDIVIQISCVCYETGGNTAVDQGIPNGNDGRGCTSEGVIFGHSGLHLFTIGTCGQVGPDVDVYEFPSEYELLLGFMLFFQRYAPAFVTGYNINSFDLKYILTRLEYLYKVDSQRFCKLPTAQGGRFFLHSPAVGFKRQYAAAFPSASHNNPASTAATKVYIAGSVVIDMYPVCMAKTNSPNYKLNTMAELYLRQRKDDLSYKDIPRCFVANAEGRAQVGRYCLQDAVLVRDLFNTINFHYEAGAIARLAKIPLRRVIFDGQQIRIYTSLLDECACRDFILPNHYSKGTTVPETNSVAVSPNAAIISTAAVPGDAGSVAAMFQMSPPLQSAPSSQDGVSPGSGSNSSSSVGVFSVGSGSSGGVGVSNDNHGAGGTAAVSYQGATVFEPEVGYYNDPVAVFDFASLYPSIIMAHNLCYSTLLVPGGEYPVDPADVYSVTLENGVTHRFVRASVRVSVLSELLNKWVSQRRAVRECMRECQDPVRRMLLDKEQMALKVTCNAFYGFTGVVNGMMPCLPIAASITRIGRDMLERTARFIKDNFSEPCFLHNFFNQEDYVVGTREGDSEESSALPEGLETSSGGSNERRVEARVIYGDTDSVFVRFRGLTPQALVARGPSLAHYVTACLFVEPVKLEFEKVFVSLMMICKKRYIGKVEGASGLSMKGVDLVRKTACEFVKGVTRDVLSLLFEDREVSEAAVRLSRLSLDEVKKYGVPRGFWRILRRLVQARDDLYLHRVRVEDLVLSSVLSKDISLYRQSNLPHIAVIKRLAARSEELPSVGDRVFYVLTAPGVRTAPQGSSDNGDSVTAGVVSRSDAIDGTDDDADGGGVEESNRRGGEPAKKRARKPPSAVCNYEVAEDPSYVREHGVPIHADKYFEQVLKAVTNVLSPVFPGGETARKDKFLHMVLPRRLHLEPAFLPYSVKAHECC

As a reminder, the EC50 is the concentration needed to bring the measured effect to its halfway point. For orientation: IC50 means the concentration that inhibits the measured activity by half. Read a low IC50 as inhibition by little substance. Consider `CC1(O)CCN(Cc2cnc(C(=O)NCc3ccc(Cl)cc3)cc2O[C@H]2CCN3C(=O)OC[C@@H]3C2)C1` (mixture of isomers) [Compound 134], for which the 50% effective concentration (EC50) in experiment [1] stood at 5850 nM; in experiment [4], 3970 nM; in experiment [5], 1930 nM. Moreover, the IC50 in experiment [2] came to 124 nM; in experiment [3] it was 95.4 nM.
For `CO[C@H]1CN(Cc2cnc(C(=O)NCc3ccc(Cl)cc3)cc2O[C@H]2CCN3C(=O)OC[C@@H]3C2)[C@@H]1C` (mixture of isomers) [Compound 137], in that order: 602 nM, 1420 nM, 575 nM, 35 nM and 36.7 nM.
On the same counts, the results for `O=C(NCc1ccc(Cl)cc1)c1cc(O[C@H]2CCN3C(=O)OC[C@@H]3C2)c(CN2CCCC(O)C2)cn1` (mixture of isomers) [Compound 140] are 4320 nM, 2560 nM, 855 nM, 62 nM and 54.6 nM.
For `O=C(NCc1ccc(Cl)cc1)c1cc(O[C@H]2CCN3C(=O)OC[C@@H]3C2)c(CN2CCC3OCCC32)cn1` (mixture of isomers) [Compound 142], in that order: 453 nM, 490 nM, 243 nM, 17.8 nM and 12.9 nM.
As to `CC(=O)N1CCC(Oc2cc(C(=O)NCc3ccc(Cl)cc3)ncc2/C=C/CO)CC1` [Compound 73], the EC50 was determined as 842 nM in experiment [1] and 1780 nM in experiment [5]. Besides, the figures for the IC50 in experiment [2] and in experiment [3] were 93.2 nM and 45 nM, respectively.
For `COC/C=C/c1cnc(C(=O)NCc2ccc(Cl)cc2)cc1OC1CCN(C(C)=O)CC1` [Compound 74], the EC50 in experiment [1] is 280 nM; in experiment [5], 1440 nM. Further, the IC50 in experiment [2] was found to be 83 nM; in experiment [3], 35 nM.
For `CC(=O)N1CCC(Oc2cc(C(=O)NCc3ccc(Cl)cc3)ncc2C#Cc2cc(C)ccn2)CC1` [Compound 76], in that order: 624 nM, 1230 nM, 209 nM and 165 nM.
As to `O=C(NCc1ccc(Cl)cc1)c1cc(O[C@H]2CCN3C(=O)OC[C@@H]3C2)c(CO)cn1` [Compound 98], the EC50 in experiment [1] is 1520 nM; in experiment [5], 509 nM. The values for the IC50 in experiment [2] and in experiment [3] were 45.6 nM and 27.9 nM, respectively.
On the same counts, the results for `Cc1ncc(-c2cc(O[C@H]3CCN4C(=O)OC[C@@H]4C3)cc(C(=O)NCc3ccc(Cl)cc3)n2)s1` [Compound 102] are 427 nM, 8400 nM, 199 nM and 117 nM.
For `Cc1cnc(-c2cnc(C(=O)NCc3ccc(Cl)cc3)cc2OC(C)C)s1` [Compound 103], in that order: 3000 nM, 19400 nM, 2310 nM and 956 nM.
On the same counts, the results for `O=C(NCc1ccc(Cl)cc1)c1cc(O[C@H]2CCN3C(=O)OC[C@@H]3C2)c(O)cn1` [Compound 146] are 6220 nM, 1140 nM, 20.1 nM and 8.04 nM.
Regarding `O=C(NCc1ccc(Cl)cc1)c1cc(O[C@H]2CCN3C(=O)OC[C@@H]3C2)cc(CO)n1` [Compound 152], the EC50 in experiment [1] is 10700 nM; in experiment [5], 1890 nM. Also, the values for the IC50 in experiment [2] and in experiment [3] were 201 nM and 134 nM, respectively.
For `Cc1cnc(C(=O)NCc2ccc(Cl)cc2)cc1O[C@H]1CCN2C(=O)CC[C@@H]2C1` [Compound 169], in that order: 594 nM, 1490 nM, 46.7 nM and 5.45 nM.
